Legend:
[1] = Pharmacokinetic study in rats after single intravenous administration (HPLC-UV plasma determination, two-compartment model, 3p97 software); assay type: in vivo, Wistar albino rats; parameters: AUC / CL(s): unit not given here; details: for A / B / CL(s) / K 10 (first order elimination from compartment 1) / K 12 (first order transfer from compartment 1 to compartment 2) / K 21 (first order transfer from compartment 2 to compartment 1) / V d / t 1/2a (distribution half-life) / t 1/2β (elimination half-life) / β: mean ± SD, n = 6
Procedure: Laboratory bred adult Wistar albino rats (200–250 g), which were supplied by the Animal Research Center at Shanxi Medical University (Taiyuan, Shanxi Province, China), were housed at 25 ± 2°C in a well-ventilated animal house under 12 : 12 h light dark cycle. The animals drank sterilized drinking water, and standard chow diet was supplied ad libitum to each cage. The animal experiments were performed in accordance with the ARVO Statement for the Use of Animals in Ophthalmic and Vision Research and were approved by the Animal Ethics Committee of Shanxi Medical University.
HPLC analysis was carried out using a Waters 2695 HPLC system (Waters Associates, Milford, MA) which consisted of a photodiode array detector, an autosampler, and a degasser. The apparatus was interfaced to a DELL PC compatible computer using Empower Pro software for data acquisition. The sensitivity was 0.2 AUFS. The autosampler was cooled to 10°C. The column was maintained at room temperature. Chromatographic separation of DPDFT and the I.S. was achieved on a Diamonsil C18 column (250 mm × 4.6 mm, 5 μm) from Dikma Technologies (Beijing, China) protected by a SHIMADZU LC guard column at 25°C. The mobile phase for HPLC analysis consisted of phosphoric acid in water (solvent A)/methanol (solvent B) (30 : 70, V/V, pH 3.0) with a flow rate of 0.8 mL·min^−1. A sample volume of 20 μL was injected. Prior to use, the mobile phase was filtered through a 0.45 μm hydrophilic membrane filter. The photodiode array detector was set at a wavelength of 228 nm at room temperature. Under the chromatographic condition mentioned above, DPDFT and the I.S. acetanilide could be separated completely in the chromatograms (R > 1.5), and there was no endogenous interference with the chromatographic peak of DPDFT and the I.S.acetanilide. Besides, the retention time of acetanilide (t R = 15.67 min) was very suitable as the I.S. compared to that of DPDFT (t R = 8.34 min).
Blood samples collected from rat blood plasma were immediately transferred to 1.5 mL heparinized microcentrifuge tubes from fossa orbitalis of rats, and then processed for plasma by centrifugation. The supernatant plasma (0.2 mL) was then vortex-mixed with methanol (0.4 mL) containing acetanilide (0.2 mL, 50.0 μg·mL^−1) as internal standard (I.S.) for 30 s. After vortex-mixing, the mixture was centrifuged at 13000 rpm for 10 min 4°C to separate precipitated proteins. The supernatant solution of methanol layer was filtered through a 0.45 μm membrane filter. Twenty microliters of filtrate were injected into the chromatography. The same sample processing was also applied to the recovery and to the precision study in plasma. All harvested samples stored at −4°C were brought to room temperature before use and analyzed within one week.
To evaluate the suitability of the assay for pharmacokinetic studies, 7.5, 15, and 30 mg·kg^−1 of DPDFT were intravenously administered to rats (half males and half females, resp.). Six animals were used in each dosage by direct injection into a lateral tail vein, with a duration of infusion less than 1 min. Heparinized blood samples (0.5 mL) were collected at 0, 1, 3, 5, 10, 30, 60, and 120 min after injection. […]. After each sampling, the removed volume of blood was supplemented with an equal volume of sodium chloride. The blood samples were immediately centrifuged and the resulting plasma was prepared according to the procedure given for the calibrators. Pharmacokinetic calculations were performed using the observed data. […] All values obtained were expressed in mean ± standard deviation.

[2] = Stability of stock solution stored at 4°C; assay type: physicochemical; details: stock solution in methanol
Procedure: A stock solution of DPDFT was prepared in methanol at the concentration of 100 mg·mL^−1 and was further diluted in HPLC mobile phase to make working standards. The I.S. stock solution was prepared and diluted to 50.0 μg·mL^−1 working solution with HPLC mobile phase. All the stock solutions were maintained at 4°C until use.
Stability of DPDFT during storage and processing was checked using quality control samples. The DPDFT and I.S. stock solutions were stable for at least 2 months when stored at 4°C. The deviation of the mean test responses was within ±10% of appropriate controls in all stability tests of DPDFT in rat plasma. After three freeze-thaw cycles, the concentration changes of DPDFT were less than 7%. The analyte was stable in the matrices at 4, −20°C and room temperature for 72 h without significant degradation (<8%).

[3] = Stability of DPDFT in rat plasma QC samples (freeze/thaw, storage, autosampler); assay type: in vitro ADME
Procedure: Quality control (QC) samples were used to determine the accuracy and precision of method and were independently prepared at low (0.8 μg·mL^−1), medium (4 μg·mL^−1), and high (20 μg·mL^−1) concentrations. To evaluate the accuracy and precision, we used at least five QC samples of three different concentrations of DPDFT. The intraday and interday accuracies were expressed as the percentage difference between the measured concentration and the nominal concentration in rat plasma. The intraday precision and accuracy were calculated using replicate (n = 6) determinations for each concentration of the spiked plasma sample during a single analytical run. The interassay precision and accuracy were calculated using replicate (n = 6) determinations of each concentration made on three separate days. The variability of determination was expressed as the relative standard deviation (RSD) which should be ≤15%, covering the range of actual experimental concentrations.
The stability of DPDFT in rat plasma was assessed by analyzing replicates (n = 6) of QC samples at concentrations of 0.8, 4, 20 μg·mL^−1, respectively. The investigation covered the expected conditions during all of the sample storage and process periods, which included the stability data from freeze/thaw cycle and long-term stability tests. The concentrations obtained from stability studies were compared with the freshly prepared QC samples, and the percentage concentration deviation was calculated. In each freeze–thaw cycle, the samples were frozen and stored at −20°C for 10 days, then thawed at room temperature. The stability of the fresh plasma samples was tested after keeping the samples at […], −20°C and room temperature for 72 h. The stability of deproteinized samples at 10°C in the autosampler was evaluated up to 24 h.

[4] = as above; assay type: in vitro ADME; details: 72 h at 4°C
[5] = rats, i.v., 15 mg·kg^−1 (middle)
[6] = rats, i.v., 7.5, 15, and 30 mg·kg^−1

## O=C(N[O][Sn]([O]NC(=O)c1ccc(F)cc1F)([c]1ccccc1)[c]1ccccc1)c1ccc(F)cc1F [DPDFT, Di-phenyl-di-(2,4-difluobenzohydroxamato)tin(IV)]
[1]; collected at 3 min after administration of 15 mg·kg^−1, i.v.
  DPDFT concentration in blood sample: 2.4 µg/mL
[1]; rats, i.v., 7.5 mg·kg^−1 (low)
  A: 2.21 ± 0.03 min⁻¹
  B: 0.15 ± 0.04 mg/kg
  CL(s): 0.66 ± 0.05
  K 10 (first order elimination from compartment 1): 0.32 ± 0.05 min⁻¹
  K 12 (first order transfer from compartment 1 to compartment 2): 0.26 ± 0.04 min⁻¹
  K 21 (first order transfer from compartment 2 to compartment 1): 0.08 ± 0.004 min⁻¹
  V d: 2.13 ± 0.07 L/kg
  t 1/2a (distribution half-life): 1.04 ± 0.01 min
  t 1/2β (elimination half-life): 17.68 ± 2.6 min
  β: 0.04 ± 0.003 min⁻¹
[1]; [5]
  A: 7.94 ± 3.12 min⁻¹
  B: 0.92 ± 0.04 mg/kg
  CL(s): 0.27 ± 0.02
  K 10 (first order elimination from compartment 1): 0.24 ± 0.08 min⁻¹
  K 12 (first order transfer from compartment 1 to compartment 2): 0.38 ± 0.01 min⁻¹
  K 21 (first order transfer from compartment 2 to compartment 1): 0.11 ± 0.01 min⁻¹
  V d: 1.13 ± 0.08 L/kg
  t 1/2a (distribution half-life): 1.01 ± 0.01 min
  t 1/2β (elimination half-life): 19.38 ± 3.6 min
  β: 0.04 ± 0.003 min⁻¹
[1]; rats, i.v., 30 mg·kg^−1 (high)
  A: 22.36 ± 8.12 min⁻¹
  B: 1.85 ± 0.44 mg/kg
  K 10 (first order elimination from compartment 1): 0.30 ± 0.18 min⁻¹
  K 12 (first order transfer from compartment 1 to compartment 2): 0.28 ± 0.11 min⁻¹
  K 21 (first order transfer from compartment 2 to compartment 1): 0.09 ± 0.01 min⁻¹
  V d: 0.62 ± 0.08 L/kg
  t 1/2a (distribution half-life): 1.12 ± 0.1 min
  t 1/2β (elimination half-life): 16.81 ± 3.6 min
  β: 0.04 ± 0.003 min⁻¹
[1]; [6]
  compartment model fitted to concentration-time data: two-compartment model
  difference in pharmacokinetic parameters between male and female rats: no significant differences
[1]; rats, i.v., from 7.5 to 30 mg/kg
  dose linearity of pharmacokinetics: nonlinear process
[2]
  time stock solution was stable: at least 2 months
[3]; all stability tests in rat plasma
  deviation of the mean test responses from appropriate controls: ≤ 10%
[3]; deproteinized rat plasma, 10°C for up to 24 h
  run-time stability (concentration change): < 6%
[3]; deproteinized rat plasma, autosampler 24 h at 10°C, nominal 0.8 μg·mL^−1
  Accuracy = [(Cobs − Cnom)/Cnom] × 100: 3.75%
[3]; deproteinized rat plasma, autosampler 24 h at 10°C, nominal 0.8 μg·mL^−1, n = 6
  Observed concentration ± SD: 0.83 ± 0.04 µg/mL
[3]; deproteinized rat plasma, autosampler 24 h at 10°C, nominal 4 μg·mL^−1
  Accuracy = [(Cobs − Cnom)/Cnom] × 100: −4.25%
[3]; deproteinized rat plasma, autosampler 24 h at 10°C, nominal 4 μg·mL^−1, n = 6
  Observed concentration ± SD: 3.83 ± 0.18 µg/mL
[3]; deproteinized rat plasma, autosampler 24 h at 10°C, nominal 20 μg·mL^−1
  Accuracy = [(Cobs − Cnom)/Cnom] × 100: −4.05%
[3]; deproteinized rat plasma, autosampler 24 h at 10°C, nominal 20 μg·mL^−1, n = 6
  Observed concentration ± SD: 19.19 ± 1.08 µg/mL
[3]; rat plasma, 4, −20°C and room temperature for 72 h
  degradation in the matrices: < 8%
[3]; rat plasma, 72 h at 4°C, nominal 0.8 μg·mL^−1
  Accuracy = [(Cobs − Cnom)/Cnom] × 100: 8.75%
[3]; rat plasma, 72 h at 4°C, nominal 0.8 μg·mL^−1, n = 6
  Observed concentration ± SD: 0.87 ± 0.04 µg/mL
[3]; rat plasma, 72 h at 4°C, nominal 4 μg·mL^−1, n = 6
  Observed concentration ± SD: 3.70 ± 0.16 µg/mL
[3]; rat plasma, 72 h at 4°C, nominal 20 μg·mL^−1
  Accuracy = [(Cobs − Cnom)/Cnom] × 100: 5.70%
[3]; rat plasma, 72 h at room temperature, nominal 0.8 μg·mL^−1
  Accuracy = [(Cobs − Cnom)/Cnom] × 100: −2.50%
[3]; rat plasma, 72 h at room temperature, nominal 0.8 μg·mL^−1, n = 6
  Observed concentration ± SD: 0.78 ± 0.05 µg/mL
[3]; rat plasma, 72 h at room temperature, nominal 4 μg·mL^−1
  Accuracy = [(Cobs − Cnom)/Cnom] × 100: −3.25%
[3]; rat plasma, 72 h at room temperature, nominal 4 μg·mL^−1, n = 6
  Observed concentration ± SD: 3.87 ± 0.19 µg/mL
[3]; rat plasma, 72 h at room temperature, nominal 20 μg·mL^−1, n = 6
  Observed concentration ± SD: 19.46 ± 1.19 µg/mL
[3]; rat plasma, 72 h at −20°C, nominal 0.8 μg·mL^−1
  Accuracy = [(Cobs − Cnom)/Cnom] × 100: −7.50%
[3]; rat plasma, 72 h at −20°C, nominal 0.8 μg·mL^−1, n = 6
  Observed concentration ± SD: 0.74 ± 0.05 µg/mL
[3]; rat plasma, 72 h at −20°C, nominal 4 μg·mL^−1
  Accuracy = [(Cobs − Cnom)/Cnom] × 100: 5.50%
[3]; rat plasma, 72 h at −20°C, nominal 4 μg·mL^−1, n = 6
  Observed concentration ± SD: 4.22 ± 0.12 µg/mL
[3]; rat plasma, 72 h at −20°C, nominal 20 μg·mL^−1
  Accuracy = [(Cobs − Cnom)/Cnom] × 100: −4.35%
[3]; rat plasma, 72 h at −20°C, nominal 20 μg·mL^−1, n = 6
  Observed concentration ± SD: 19.13 ± 1.53 µg/mL
[3]; rat plasma, frozen at −20°C, thawed at room temperature
  concentration changes after three freeze-thaw cycles: less than 7%
[3]; rat plasma, three freeze and thaw cycles, nominal 0.8 μg·mL^−1
  Accuracy = [(Cobs − Cnom)/Cnom] × 100: −5.00%
[3]; rat plasma, three freeze and thaw cycles, nominal 0.8 μg·mL^−1, n = 6
  Observed concentration ± SD: 0.76 ± 0.05 µg/mL
[3]; rat plasma, three freeze and thaw cycles, nominal 4 μg·mL^−1
  Accuracy = [(Cobs − Cnom)/Cnom] × 100: −5.25%
[3]; rat plasma, three freeze and thaw cycles, nominal 4 μg·mL^−1, n = 6
  Observed concentration ± SD: 3.79 ± 0.13 µg/mL
[3]; rat plasma, three freeze and thaw cycles, nominal 20 μg·mL^−1
  Accuracy = [(Cobs − Cnom)/Cnom] × 100: −5.15%
[3]; rat plasma, three freeze and thaw cycles, nominal 20 μg·mL^−1, n = 6
  Observed concentration ± SD: 18.97 ± 1.17 µg/mL
[4]; nominal 4 μg·mL^−1
  Accuracy = [(Cobs − Cnom)/Cnom] × 100: −7.50%
[4]; nominal 20 μg·mL^−1, n = 6
  Observed concentration ± SD: 21.14 ± 1.27 µg/mL

Source: paper PMC3287010, “Pharmacokinetic Study of Di-Phenyl-Di-(2,4-Difluobenzohydroxamato)Tin(IV): Novel Metal-Based Complex with Promising Antitumor Potential” (Bioinorganic Chemistry and Applications, 2012)
